# From US10034886B2, “GLP-1 receptor modulators” (Celgene International II SÀRL, priority 2014, dated 2018)
# Molecular target: T1, GLP-1R (Homo sapiens, UniProt P43220)
# T1 construct: host or cells: GLP-1R CRE-bla CHO-K1 cells
# Assay: EC20 GLP-1(9-36) PAM cAMP assay: dose response of compound in the presence of fixed concentration of GLP-1(9-36)
# Assay type: cell-based
# Settings: GLP-1R CRE-bla CHO-K1 cells, compound dose response with fixed concentration of GLP-1(9-36), read-out: EC20 GLP-1(9-36) PAM EC50
# Method in brief: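 GLP-1R CRE-bla CHO-K1 cells treated 30 min at 37 °C with 12-point compound dose response plus fixed EC20 GLP-1(9-36), with IBMX, in HBSS/HEPES/0.1% BSA pH 7.4. Total cAMP measured by luminescent detection against standard curve; EC50 and Emax from non-linear regression.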
# T1 sequence (P43220 24-463): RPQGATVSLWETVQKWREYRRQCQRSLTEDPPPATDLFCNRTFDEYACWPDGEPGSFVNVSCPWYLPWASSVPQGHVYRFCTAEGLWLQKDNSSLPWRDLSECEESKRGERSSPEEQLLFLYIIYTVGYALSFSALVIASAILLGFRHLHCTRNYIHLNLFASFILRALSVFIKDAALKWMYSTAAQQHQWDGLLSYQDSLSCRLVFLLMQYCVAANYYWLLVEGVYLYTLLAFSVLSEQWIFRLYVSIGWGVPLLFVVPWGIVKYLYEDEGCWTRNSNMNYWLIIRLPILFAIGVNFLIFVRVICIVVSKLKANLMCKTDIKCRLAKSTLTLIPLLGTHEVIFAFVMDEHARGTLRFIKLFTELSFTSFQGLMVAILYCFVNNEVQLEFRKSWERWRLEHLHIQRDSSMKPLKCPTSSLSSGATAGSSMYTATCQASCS
# T1 sequence (P01275 100-127 partner limits assumed): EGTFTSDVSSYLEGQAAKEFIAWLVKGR
row,SMILES,EC50
1,CCCOc1ccc(-c2ccc(-c3cnc(-c4ccc(C[C@H](NC(=O)c5ccc(C(C)(C)C)s5)C(=O)N[C@H](C)C(=O)O)cc4)nc3)cc2)cc1 [Compound 1288],800 to 2500 nM
2,CCC[C@H]1CC[C@H](C2CCN(c3cnc(-c4ccc(CC(NC(=O)c5ccc(C(C)(C)C)s5)C(=O)NS(=O)(=O)CCOC)cc4)nc3)CC2)CC1 (stereo partly drawn) [Compound 1540],< 800 nM
3,CCC[C@H]1CC[C@H](C2CCN(c3cnc(-c4ccc(C[C@H](NC(=O)c5ccc(C(C)(C)C)s5)C(=O)N[C@@H](CC(=O)O)C(=O)O)cc4)nc3)CC2)CC1 [Compound 1463],< 800 nM
4,CCCc1ccc(C2CN(c3cnc(-c4ccc(CC(NC(=O)c5ccc(C(C)(C)C)s5)C(=O)N5CC(C(=O)O)C5)cc4)nc3)C2)cc1 (stereo not drawn) [Compound 1417],800 to 2500 nM

# More lines, now with the values ahead:
row,EC50,SMILES
1,< 800 nM,CC(C)(C)c1ccc(C(=O)N[C@@H](Cc2ccc(-c3ncc(-c4ccc(-c5ccccc5OC(F)(F)F)cc4F)cn3)cc2)C(=O)N2CC(C(=O)O)C2)s1 [Compound 1224]
2,< 800 nM,CCC[C@H]1CC[C@H](C2CCN(c3cnc(-c4ccc(C[C@H](NC(=O)c5ccc(C(C)(C)C)s5)C(=O)N[C@H](CN)C(=O)O)cc4)nc3)CC2)CC1 [Compound 1473]
3,< 800 nM,CCC[C@H]1CC[C@H](C2CCN(c3cnc(-c4ccc(C[C@H](NC(=O)c5ccc(C(C)(C)C)s5)C(=O)N[C@H](CC)C(=O)O)cc4)nc3)CC2)CC1 [Compound 1443]
4,5000 to 10000 nM,COc1cc(/C=C/c2cnc(-c3ccc(C[C@H](NC(=O)c4ccc(C(C)(C)C)s4)C(=O)N[C@H](C)C(=O)O)cc3)nc2)cc(OC)c1 [Compound 1259]
5,800 to 2500 nM,CN(C)c1ccc(C2CCN(c3cnc(-c4ccc(CC(NC(=O)c5ccc(C(C)(C)C)s5)C(=O)N5CC(C(=O)O)C5)cc4)nc3)CC2)cc1 (stereo not drawn) [Compound 1486]

# Same assay, conditions: dose response of compound in presence of fixed concentration of GLP-1(9-36), GLP-1R CRE-bla CHO-K1 cells, read-out: EC20 GLP-1(9-36) PAM EC50
row,SMILES,EC50
1,CC(C)CCCOc1ccc(-c2cnc(-c3ccc(C[C@H](NC(=O)c4ccc(C(C)(C)C)s4)C(=O)N[C@H](C)C(=O)O)cc3)nc2)cc1 [Compound 771],800 to 2500 nM
2,CC(C)CCCOc1ccc(-c2cnc(-c3ccc(C[C@H](NC(=O)c4ccc(C(C)(C)C)cc4)C(=O)N[C@H](C)C(=O)O)cc3)nc2)cc1 [Compound 793],800 to 2500 nM
3,CCCCCCCOc1ccc(-c2cnc(-c3ccc(C[C@H](NC(=O)c4ccc(C(C)(C)C)cc4)C(=O)NC(C(=O)O)c4c(C)n[nH]c4C)cc3)nc2)cc1 (stereo partly drawn) [Compound 549],< 800 nM
4,CCCCCCCOc1ccc(-c2cnc(-c3ccc(C[C@H](NC(=O)c4ccc(CCC)s4)C(=O)N[C@H](C)C(=O)O)cc3)nc2)cc1 [Compound 840],800 to 2500 nM
5,CCCCCCCOc1ccc(-c2cnc(-c3ccc(C[C@H](NC(=O)c4ccc(C(C)(C)C)s4)C(=O)NC(CCCC)C(=O)O)cc3)nc2)cc1 (stereo partly drawn) [Compound 609],< 800 nM
6,CCC(C)COc1ccc(-c2cnc(-c3ccc(C[C@H](NC(=O)c4ccc(C(C)(C)C)s4)C(=O)N4CC(C(=O)O)C4)cc3)nc2)cc1 (stereo partly drawn) [Compound 797],800 to 2500 nM
7,CCCCCCCOc1ccc(-c2cnc(-c3ccc(C[C@H](NC(=O)c4ccc(C(C)(C)C)s4)C(=O)N[C@@H](CC(=O)O)C(=O)N4CCCCC4)cc3)nc2)cc1 [Compound 529],< 800 nM
8,CCCCCCCOc1ccc(-c2cnc(-c3ccc(C[C@H](NC(=O)c4ccc(C5CC5)s4)C(=O)NC(C(=O)O)C(O)c4ccccc4)cc3)nc2)cc1 (stereo partly drawn) [Compound 956],2500 to 5000 nM
9,CC(C)CCCCOc1ccc(-c2cnc(-c3ccc(C[C@H](NC(=O)c4ccc(C(C)(C)C)s4)C(=O)N4CC(C(=O)O)C4)cc3)nc2)cc1 [Compound 795],< 800 nM

# Further lines, results first:
row,EC50,SMILES
1,2500 to 5000 nM,CCCCCC(=O)c1ccc(-c2cnc(-c3ccc(C[C@H](NC(=O)c4ccc(C(C)(C)C)s4)C(=O)N4CC[C@H](C(=O)O)C4)cc3)nc2)cc1 [Compound 766]
2,< 800 nM,CCCCCCCOc1ccc(-c2cnc(-c3ccc(C[C@H](NC(=O)c4ccc(C(C)(C)C)s4)C(=O)N4CCC[C@H]4C(=O)NS(C)(=O)=O)cc3)nc2)cc1 [Compound 495]
3,800 to 2500 nM,CCCCCCCOc1ccc(-c2cnc(-c3ccc(C[C@H](NC(=O)c4ccc(C(C)(C)C)s4)C(=O)NC(C(=O)O)c4ccc(OC)cc4)cc3)nc2)cc1 (stereo partly drawn) [Compound 619]
